Source: patent publication US20070276040A1, “Peptidyl Arginine Deiminase Type IV Inhibitor” (priority 2004, published 2007)

Target: T1, PAD4 (Homo sapiens, UniProt Q9UM07, G112A/G55S/V82A)
T1 construct: made in house
Test: Inhibition reaction of Bz-Arg derivatives on PAD4 digestion
Format: biochemical
Details: substrate Bz-Arg; 20 μl inhibitor solution of 1 nmol/μl; 10 mM CaCl2, pH 7.6; 37° C. for 40 or 60 minutes; reverse-phase HPLC
Procedure: A buffer solution B (0.1 M Tris/HCl, 10 mM CaCl2, 2 mM DTT, pH 7.6, 125 μl), Bz-Arg (0.1 M Tris/HCl, 10 mM CaCl2, pH 7.6, 25 μl (a solution prepared in a concentration of 1 nmol/μl)) and PAD4 (1 μl) were mixed together under ice-cooling to give a Bz-Arg solution. PAD4 was prepared in accordance with the methods described in The Journal of Biological Chemistry, Vol. 277, No. 51, pp. 49562-49568, 2002 and in the documents cited in the journal. Twenty μl each of Bz-Arg (mono-methyl), Bz-ADMA, Bz-SDMA and a buffer solution A (0.1 M Tris/HCl, 10 mM CaCl2, pH 7.6) (a solution prepared in a concentration of 1 nmol/μl) was mixed with the Bz-Arg solution (30 μl) and allowed to react at 37° C. for 40 or 60 minutes. The reaction was quenched with 1 M HCl (50 μl) and then subjected to reverse-phase HPLC to separate the reaction mixture. […] The results as determined 40 minutes and 60 minutes after the start of reaction are shown in FIG. 3 and FIG. 4, respectively. In FIGS. 3 and 4, the reference number 1 represents the result with no inhibitor, 2 for the result with Bz-Arg (mono-methyl), 3 for the results with Bz-ADMA, and 4 for the result with Bz-SDMA; the vertical axis indicates the sample number and the horizontal axis indicates the yield of the deimination reaction (i.e., yield of the Bz-citrulline produced).

T1 sequence (Q9UM07 whole entry G55S/V82A/G112A): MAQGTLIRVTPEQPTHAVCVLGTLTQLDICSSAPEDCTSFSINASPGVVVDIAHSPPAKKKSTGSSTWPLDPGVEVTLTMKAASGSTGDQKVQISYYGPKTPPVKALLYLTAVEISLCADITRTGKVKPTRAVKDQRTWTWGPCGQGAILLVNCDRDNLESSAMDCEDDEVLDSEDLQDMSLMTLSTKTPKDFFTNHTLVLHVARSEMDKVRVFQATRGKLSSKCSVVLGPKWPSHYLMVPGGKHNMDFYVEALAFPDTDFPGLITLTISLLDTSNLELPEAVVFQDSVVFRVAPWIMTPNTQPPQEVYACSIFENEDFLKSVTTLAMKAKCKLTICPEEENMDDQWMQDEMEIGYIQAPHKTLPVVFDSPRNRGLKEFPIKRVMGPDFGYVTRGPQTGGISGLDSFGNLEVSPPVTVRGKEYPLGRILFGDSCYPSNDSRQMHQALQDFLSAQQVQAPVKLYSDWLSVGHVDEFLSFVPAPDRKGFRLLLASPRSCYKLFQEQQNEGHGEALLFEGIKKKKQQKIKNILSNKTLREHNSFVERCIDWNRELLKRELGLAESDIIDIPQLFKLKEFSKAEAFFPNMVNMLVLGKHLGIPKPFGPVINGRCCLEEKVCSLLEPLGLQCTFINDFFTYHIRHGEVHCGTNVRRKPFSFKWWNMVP

CN(C)C(=N)NCCCC(NC(=O)c1ccccc1)C(=O)O (centres unmarked) [Bz-ADMA]
inhibitory effect on PAD4 digestion (deimination of Bz-Arg, yield of the Bz-citrulline produced): most potent inhibitory effect

C/N=C(/NC)NCCCC(NC(=O)c1ccccc1)C(=O)O (centres unmarked) [Bz-SDMA]
inhibitory effect on PAD4 digestion (deimination of Bz-Arg, yield of the Bz-citrulline produced): no inhibitory effect
